Key:
VDR = VDR (Homo sapiens (Human), UniProt P11473); test: VDR agonism: induction of CYP24 gene expression in SCC25 cells (RT/PCR); assay type: cell-based
Description: RNA isolation and RT/PCR analysis. PCR primers against CYP24 (forward, 5',5'-[NT], reverse, 5'-[NT] designed using Primer3 software as described and used in […]-Mendoza, Quach, T., Dabbas, B., Hudon, J., Liao, X., Palijan, A., Gleason, J. L., and White, J. H. (2008) Incorporation of histone deacetylase inhibition into the structure of a nuclear receptor agonist. Proc. Nat. Acad. Sci. […] After treatment, cells were washed with PBS, homogenized with 1 ml TRIzol Reagent (Invitrogen, Carlsbad, Calif.), kept at room temperature for 2-5 min, collected and kept at -80° C. for at least 1 h. After, thawing 0.2 ml chloroform was added. After vigorous mixing and storing for 10 min, mixtures were centrifuged (10,000 rpm, 15 min, 4° C.) and the upper transparent layer was transferred to a new tube. 0.5 ml isopropanol was added and the new solution was mixed. After centrifuging at 4° C., the supernatant was discarded and 1 ml of 75% ethanol was added. After centrifuging and discarding the supernatant, the pellet was air-dried for 5-10 min, and then dissolved in ddH2O. RNA concentrations were measured using a spectrophotometer, and 1-3 μg of RNA were loaded for reverse transcriptase reactions (total volume: 20 μl). 80 μl of ddH2O was added to the RT-product, and 1.5 μl of that was used as template for the PCR reaction. Reverse transcriptase (Super Script II) was purchased from Invitrogen (Carlsbad, Calif.). DNA polymerase and dNTP's were ordered from Fermentas (Glen Burnie, Md.).

SCC4 cells = test: MTS cell proliferation assay, SCC4; assay type: cell-based, human; settings: vitamin D resistant SCC4 cells; FIGS. 7c, 8 and 9
Source text: Dose-dependent effects of compounds on cell cycle progression was monitored using a CellTiter 96 Aqueous Non-Radioactive Cell Proliferation Assay Kit (Promega). The assay composed of solutions of a novel tetrazolium compound (MTS) and an electron coupling reagent (phenazine methosulfate; PMS). MTS is reduced by metabolically active cells into a soluble formazan product that absorbs at 490 nm. The quantity of formazan product absorbing at 490 nm is directly proportional to the number of living cells.

[1] = system: 60 cell panel of human carcinoma cell lines; test: National Cancer Institute 60 cell panel (overall); assay type: cell-based
IGROV1 = test: NCI 60 cell panel: IGROV1; assay type: cell-based; settings: Ovarian Cancer
AT84 cells = test: EdU cell growth assay, AT84
Description: (§1) EdU Cell Growth Assay. Click-iT EdU Alexa Fluor high-throughput imaging (HCS) assay for cell proliferation. HCS assays were performed on AT84 mouse squamous carcinoma cell line (ATCC) following the manufacturer's instruction (Molecular Probes, Invitrogen). […] All samples were in triplicate.

SCC25 cells = test: EdU cell growth assay, SCC25
Description: as §1

Chain of VDR (P11473 whole entry): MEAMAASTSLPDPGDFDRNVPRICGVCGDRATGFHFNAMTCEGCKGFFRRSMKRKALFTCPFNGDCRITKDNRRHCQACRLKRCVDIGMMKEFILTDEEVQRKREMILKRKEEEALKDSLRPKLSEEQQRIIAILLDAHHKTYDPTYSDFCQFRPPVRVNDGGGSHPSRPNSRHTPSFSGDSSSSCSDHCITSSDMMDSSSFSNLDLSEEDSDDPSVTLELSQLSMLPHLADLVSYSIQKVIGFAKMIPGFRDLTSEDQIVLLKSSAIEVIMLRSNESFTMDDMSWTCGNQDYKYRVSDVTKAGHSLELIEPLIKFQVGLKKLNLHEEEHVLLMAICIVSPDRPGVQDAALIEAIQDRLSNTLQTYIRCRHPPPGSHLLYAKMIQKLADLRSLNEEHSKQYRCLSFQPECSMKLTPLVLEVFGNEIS

CCC(CC)(c1ccc(OCC(=O)NO)c(C)c1)c1ccc(OCC(O)C(C)(C)C)c(C)c1 (racemic) [JF-B01, N-Hydroxy-2-(4-(3-(4-(2-hydroxy-3,3-dimethylbutoxy)-3-methylphenyl)pentan-3-yl)-2-methylphenoxy)acetamide]
VDR agonist potency relative to 1,25D (fold lower) (VDR; FIG. 1b): approximately 10 fold
VDR agonist potency relative to LG190178 (VDR; FIG. 1b): equal to or greater than that of LG190178
VDR agonist activity/potency (CYP24 induction, dose response) (VDR; FIG. 1b, 1d): efficacious agonist
induction of CYP24 by the compound blocked (consistent with binding to the VDR) (VDR; FIG. 1c): blocked
VDR agonism by induction of CYP24 gene expression (screen) (VDR; test compounds 10 μM, FIG. 1a): showed any agonist activity against VDR
antiproliferative potency (MTS) (SCC4 cells): low micromolar potency
antiproliferative activity in the 60 cell panel ([1]; all cell lines): displayed antiproliferative activity in all cell lines
full growth inhibition concentration ([1]; melanoma cell lines, 8 out of 9 cell lines): ≤ 7 µM
TGI (IGROV1): 5.25E−6
antiproliferative potency relative to 1,25D (fold less potent) (AT84 cells): 10 fold
antiproliferative potency relative to 1,25D (fold less potent) (SCC25 cells): 10 fold

Reference: patent publication US9428447B2, “Bis-(aryl/heteroaryl)-methylene compounds, pharmaceutical compositions containing same and their use for treating cancer” (The Royal Institution For The Advancement of …, priority 2011, dated 2016)
